This is an account of results in the Deep4Chem optical property database.

The data set can be described thus: photoluminescence quantum yield (fraction); solvent given as SMILES.

Molecules are shown by their SMILES. Several values for one entry are separate records, joined by “and”; a condition that tells them apart may be missing. Identical values can stand only once.

As to `ClC(Cl)=C1c2ccccc2C(C2(Cl)c3ccccc3C(=C(Cl)Cl)c3ccccc32)c2ccccc21` (centres undefined), the photoluminescence quantum yield by setting is: (in C1CCCCC1) 0.3; (in CCCCCO) 0.25; (in CCCCO) 0.21; (in CCCO) 0.19; (in CCO) 0.17; (in CO) 0.15.
`COc1ccc2c(c1)-c1cc3c(cc1[Si]2(c1ccccc1)c1ccccc1)-c1ccccc1[Si]3(c1ccccc1)c1ccccc1` showed a photoluminescence quantum yield (in ClCCl) of 0.4.
Take `O=S(=O)(c1ccc(N(c2ccccc2)c2ccccc2)cc1)c1ccc(S(=O)(=O)c2ccc(N(c3ccccc3)c3ccccc3)cc2)cc1`: the photoluminescence quantum yield (in Cc1ccccc1) stood at 0.64.
With `c1ccc2c(c1)oc1nc3oc4ccc(-n5c6ccccc6c6ccccc65)cc4c3cc12`, where the note is “in ClC(Cl)Cl”, the photoluminescence quantum yield is 0.074.
Under “in CC#N”, `Cc1ccc(-c2sc(/C(C#N)=C/c3ccc(C#N)cc3)nc2-c2ccc(Cl)cc2)cc1` had a photoluminescence quantum yield of 0.11.
Take `Clc1nc(Cl)nc(Nc2ccc3c4cccc5cccc(c6cccc2c63)c54)n1`: the photoluminescence quantum yield reads like this: (in C1COCCO1) 0.068; (in CC#N) 0.011; (in CCCCOCCCC) 0.12; (in CCOC(C)=O) 0.014.
Where the note is “in ClC(Cl)Cl”, `F[B-]1(F)OC(c2ccc(N3CCCCC3)cc2)=Cc2cccc[n+]21` yielded a photoluminescence quantum yield of 0.612.
Consider `Cc1ccccc1C1=C2C=c3c(oc4c3ccc3ccccc34)=[N+]2[B-](F)(F)n2c1cc1c3ccc4ccccc4c3oc12`, for which the photoluminescence quantum yield reads like this: (in C1CCCCC1) 0.81; (in CCOC(C)=O) 0.69; (in CO) 0.48.
For the setting “in Cc1ccccc1”, `N#Cc1cc(-n2c3ccccc3c3ccccc32)c(-n2c3ccccc3c3ccccc32)cc1-c1cc(-n2c3ccccc3c3ccccc32)c(-n2c3ccccc3c3ccccc32)cc1C#N` displayed a photoluminescence quantum yield of 0.46.
The molecule `CC[N+](CC)=c1ccc2nc3c(cc(NCCC(=O)NC(C)C(=O)OC)c4ccccc43)oc-2c1` (centres undefined) gave a photoluminescence quantum yield (in CCO) of 0.18 and a photoluminescence quantum yield (in O) of 0.13.
Regarding `CC1=[N+]2C(=Cc3ccc(C)n3[B-]2(F)F)C=C1c1cc2n(c1)[B-](F)(F)[N+]1=CC=CC1=C2c1c(C)cc(C)cc1C`, the photoluminescence quantum yield (in C1CCCCC1) stood at 0.98 and the photoluminescence quantum yield (in CCOC(C)=O) stood at 0.11.
In turn, `COc1ccc(C2=c3sc(-c4ccc(OC)cc4)cc3=[N+]3C2=Nc2c(-c4ccc(OC)cc4)c4sc(-c5ccc(OC)cc5)cc4n2[B-]3(F)F)cc1` showed a photoluminescence quantum yield (in ClC(Cl)Cl) of 0.1.
The molecule `Cc1ccc(/C=C/c2ccccc2-[n+]2noc([O-])c2C)cc1` gave a photoluminescence quantum yield (in C1CCCCC1) of 0.0019 and a photoluminescence quantum yield (in CC#N) of 0.0019.
For `COc1nc(Nc2ccc3c4cccc5cccc(c6cccc2c63)c54)nc(OC)n1`, the photoluminescence quantum yield by setting is: (in C1COCCO1) 0.51; (in CC#N) 0.43; (in CCCCOCCCC) 0.46; (in CCOC(C)=O) 0.47.
As to `CCCCCCCN1C(=CC2=C([O-])C(=CC3=[N+](CCCCCCC)c4ccccc4C3(C)C)C2=C(C#N)C#N)Sc2ccccc21`, the photoluminescence quantum yield was found to be 0.16 (in C1COCCO1), 0.15 (in CCO), 0.16 (in CN(C)C=O) and 0.17 (in ClC(Cl)Cl).
With `C(#Cc1ncnc2ccccc12)c1ccc(N(c2ccccc2)c2ccccc2)cc1`, the photoluminescence quantum yield (in ClCCl) stood at 0.03.
For the molecule `O=c1oc2cc3ccccc3cc2nc1-c1ccccc1`, the photoluminescence quantum yield (in CC#N) is 0.003; the photoluminescence quantum yield (in CCCCCC) is 0.003; the photoluminescence quantum yield (in CO) stood at 0.003; the photoluminescence quantum yield (in c1ccccc1) is 0.003 and 0.002.
In the case of `COC(=O)/C(C#N)=c1\s/c(=c2/s/c(=C(/C#N)C(=O)OC)c3cc(-c4ccc5c(c4)C(C)(C)c4ccccc4-5)sc23)c2sc(-c3ccc4c(c3)C(C)(C)c3ccccc3-4)cc12`, the photoluminescence quantum yield (in Cc1ccccc1) turned out to be 0.531.
For `COc1ccc(-c2c3ccc(=[N+]4CCCCC4)cc-3oc3cc(N4CCCCC4)ccc23)cc1`, the photoluminescence quantum yield turned out to be 0.31 (in CCO) and 0.91 (in ClCCl).
The molecule `CCCCC1=Cc2c3ccc4cccc5ccc(c6cc(-c7ccccc7)n(c26)P1(=O)c1ccccc1)c3c45` (centres undefined) gave a photoluminescence quantum yield (in C1CCCCC1) of 0.64; a photoluminescence quantum yield (in C1CCOC1) of 0.51; a photoluminescence quantum yield (in C1COCCO1) of 0.55; a photoluminescence quantum yield (in CC#N) of 0.54; a photoluminescence quantum yield (in CC(C)=O) of 0.56; a photoluminescence quantum yield (in CO) of 0.51. Also, the photoluminescence quantum yield by setting is: (in Cc1ccccc1) 0.6; (in ClC(Cl)Cl) 0.56; (in ClCCl) 0.57.
As for `N#Cc1c(-c2ccc(N(c3ccccc3)c3ccccc3)cc2)c(C#N)c(-c2ccc(N(c3ccccc3)c3ccccc3)cc2)c(C#N)c1-c1ccc(N(c2ccccc2)c2ccccc2)cc1`, where the note is “in O=P(c1ccccc1)(c1ccccc1)c1ccccc1Oc1ccccc1P(=O)(c1ccccc1)c1ccccc1”, the photoluminescence quantum yield is 1.
Consider `Cc1ccc2c(c1)C1(c3ccccc3-c3ccccc31)c1cc(C)ccc1N2c1ccc(-c2nc(-c3ccccc3)cc(-c3ccccc3)n2)cc1`, for which the photoluminescence quantum yield (in O=P(c1ccccc1)(c1ccccc1)c1ccc2oc3ccc(P(=O)(c4ccccc4)c4ccccc4)cc3c2c1) was 0.87.
For the molecule `CCOc1ccc2c(-c3nc(-c4cccc(C)c4)no3)cc(=O)oc2c1`, the photoluminescence quantum yield by setting is: (in CCO) 0.68; (in ClC(Cl)Cl) 0.23.
Take `F[B-]1(F)n2c(c(-c3ccccc3)c(-c3cccs3)c2-c2ccccc2)N=C2C(c3ccccc3)=C(c3cccs3)C(c3ccccc3)=[N+]21`: for the setting “in ClCCl”, the photoluminescence quantum yield worked out at 0.
On the same count and under the same terms, the value for `CC(C)[Si](C#Cc1c2nc3ccccc3nc2c(C#C[Si](C(C)C)(C(C)C)C(C)C)c2nc3c4ccccc4c(=O)c4ccccc4c3nc12)(C(C)C)C(C)C` was 0.5.
On to `CC1(C)C(/C=C/C2=C(Oc3ccc(CCN=C=S)cc3F)C(=C/C=C3/N(CCCS(=O)(=O)[O-])c4ccccc4C3(C)C)/CCC2)=[N+](CCCS(=O)(=O)[O-])c2ccccc21`, for which, under “in CO”, the photoluminescence quantum yield was determined as 0.14.
For `N#CC(C#N)=Cc1ccc2nc(C#Cc3ccc(N(c4ccc(C#Cc5nc6ccc(C=C(C#N)C#N)cc6s5)cc4)c4ccc(C#Cc5nc6ccc(C=C(C#N)C#N)cc6s5)cc4)cc3)sc2c1`, the photoluminescence quantum yield (in Cc1ccccc1) amounted to 0.61.
Take `CC(=O)c1c(N[C@@H](CS)C(=O)O)c2ccc(N(C)C)cc2oc1=O`: under “in ClCCl”, the photoluminescence quantum yield amounted to 0.0025.
Same read-out and setting: as for `COc1ccc(Oc2ccc3c4c(cccc24)C(=O)N(c2c(C(C)C)cccc2C(C)C)C3=O)cc1`, the figure is 0.002; as for `c1ccc(-c2c3ccccc3c(-c3ccc4ccccc4c3)c3ccccc23)nc1`, 0.75.
`O=S1(=O)c2ccc(-c3c4ccccc4cc4ccccc34)cc2-c2cc(-c3c4ccccc4cc4ccccc34)ccc21`: the photoluminescence quantum yield stood at 0.39 (in C1CCCCC1), 0.13 (in CC#N) and 0.24 (in ClCCl).
Molecule `CCCCCCCCc1ccc(-n2c3c4ccccc4nc(-c4ccc(C#N)cc4)c3c3c2c2c(-c4ccc(C#N)cc4)nc4ccccc4c2n3-c2ccc(CCCCCCCC)cc2)cc1` showed a photoluminescence quantum yield (in ClC(Cl)Cl) of 0.14.
Turning to `Cc1ccc(C2=C3C=C(I)C(I)=[N+]3[B-](F)(F)n3c2cc(I)c3I)cc1`, the photoluminescence quantum yield is 0.099 (in C1CCCCC1); 0.058 (in CC#N); 0.067 (in CCO); 0.073 (in CCOC(C)=O); 0.061 (in CO); 0.059 (in OCC(F)(F)F).
`Cc1cc(C)c(B(c2c(C)cc(C)cc2C)c2cc3cc(N(C)C)c4ccccc4c3c3c2ccc2ccccc23)c(C)c1`: the photoluminescence quantum yield is 0.36 (in C1CCCCC1); 0.21 (in C1CCOC1); 0.13 (in CC#N); 0.2 (in ClC(Cl)Cl); 0.3 (in c1ccccc1).
For the molecule `CN(C)c1ccc2nc(-c3ccc(C(=O)Nc4ccccc4)cc3)sc2c1`, the photoluminescence quantum yield (in C1CCCCC1) came to 0.89; the photoluminescence quantum yield (in CC#N) amounted to 0.92; the photoluminescence quantum yield (in CC(C)O) amounted to 0.91; the photoluminescence quantum yield (in CO) is 0.76; the photoluminescence quantum yield (in CS(C)=O) is 0.99; the photoluminescence quantum yield (in ClC(Cl)Cl) is 0.98. Moreover, the photoluminescence quantum yield (in c1ccccc1) amounted to 0.92.
For the setting “in ClCCl”, `COc1cc2c3sc4ccccc4c3c3cncnc3c2c(OC)c1OC` showed a photoluminescence quantum yield of 0.09.
Molecule `O=S1(=O)C(c2ccsc2)=C(c2ccsc2)c2ccccc21` displayed a photoluminescence quantum yield (in C1CCOC1) of 0.005.
In the case of `CCOC(=O)C1=C(C(=O)OC)N2CCc3cc(OC)c(OC)cc3C2=C[C@H](c2ccc(Cl)cc2)C12c1ccccc1-c1ccccc12`, where the note is “in ClCCl”, the photoluminescence quantum yield amounted to 0.00105.
Molecule `COc1cccc(-[c+]2c3ccccc3oc3ccccc32)c1` registered a photoluminescence quantum yield (in CC#N) of 0.00066.
`c1ccc(-c2cc(-c3nnc(-c4ccc(N5c6ccccc6Oc6ccccc65)cc4)o3)c(-c3ccccc3)c(-c3ccccc3)c2-c2ccccc2)cc1`: the photoluminescence quantum yield reads like this: (in Cc1ccccc1) 0.264; (in c1ccc(-n2c(-c3c(-n4c5ccccc5c5ccccc54)cccc3-n3c4ccccc4c4ccccc43)nc3ccccc32)cc1) 0.93.
`CCCCCCCCCCCCOc1cc(C(=O)Nc2ccc(-c3ccc4c(c3)C(=O)c3cc(-c5ccc(NC(=O)c6cc(OCCCCCCCCCCCC)c(OCCCCCCCCCCCC)c(OCCCCCCCCCCCC)c6)cc5)ccc3-4)cc2)cc(OCCCCCCCCCCCC)c1OCCCCCCCCCCCC`: where the note is “in C1CCOC1”, the photoluminescence quantum yield was 0.06.
On to `Cc1cc(-c2ccc(N(c3ccccc3)c3ccccc3)cc2)c2nsnc2c1-c1ccc(C(C)(C)C)cc1`, for which the photoluminescence quantum yield (in ClCCl) was determined as 0.19.
Same read-out and setting: as for `CC(C)(C)c1cc(-c2c3cc(c(-c4cc(C(C)(C)C)cc(C(C)(C)C)c4)c4ccc([nH]4)c(-c4ccc([N+](=O)[O-])cc4)c4nc(c(-c5ccc([N+](=O)[O-])cc5)c5ccc2[nH]5)C=C4)N=C3)cc(C(C)(C)C)c1`, the figure is 0.0263; as for `CCCCN(CCCC)c1ccc(C#Cc2cc(C#Cc3c(F)c(F)c(F)c(F)c3F)c(C#Cc3ccc(N(CCCC)CCCC)cc3)cc2C#Cc2c(F)c(F)c(F)c(F)c2F)cc1`, 0.14.
